Assay [1] deals with single-stranded DNA substrate. Kind of assay: Surface plasmon resonance binding to single-stranded DNA substrate. The following applies: SPR. In general terms: In SPR one partner is held on a chip, and binding of the other changes the refractive index at the surface.
In the next assay the target is recombinant Tdp1 (Homo sapiens, UniProt Q9NUW8). Format: biochemical.
For assay [2], the system named is all human cancer cell lines successfully tested. Kind of assay: cells. Particulars: read-out: MGM (mean graph midpoint GI50).
In another assay the target is T1, recombinant human Top1 (Homo sapiens, UniProt P11387).
T1 sequence (P11387 1-765): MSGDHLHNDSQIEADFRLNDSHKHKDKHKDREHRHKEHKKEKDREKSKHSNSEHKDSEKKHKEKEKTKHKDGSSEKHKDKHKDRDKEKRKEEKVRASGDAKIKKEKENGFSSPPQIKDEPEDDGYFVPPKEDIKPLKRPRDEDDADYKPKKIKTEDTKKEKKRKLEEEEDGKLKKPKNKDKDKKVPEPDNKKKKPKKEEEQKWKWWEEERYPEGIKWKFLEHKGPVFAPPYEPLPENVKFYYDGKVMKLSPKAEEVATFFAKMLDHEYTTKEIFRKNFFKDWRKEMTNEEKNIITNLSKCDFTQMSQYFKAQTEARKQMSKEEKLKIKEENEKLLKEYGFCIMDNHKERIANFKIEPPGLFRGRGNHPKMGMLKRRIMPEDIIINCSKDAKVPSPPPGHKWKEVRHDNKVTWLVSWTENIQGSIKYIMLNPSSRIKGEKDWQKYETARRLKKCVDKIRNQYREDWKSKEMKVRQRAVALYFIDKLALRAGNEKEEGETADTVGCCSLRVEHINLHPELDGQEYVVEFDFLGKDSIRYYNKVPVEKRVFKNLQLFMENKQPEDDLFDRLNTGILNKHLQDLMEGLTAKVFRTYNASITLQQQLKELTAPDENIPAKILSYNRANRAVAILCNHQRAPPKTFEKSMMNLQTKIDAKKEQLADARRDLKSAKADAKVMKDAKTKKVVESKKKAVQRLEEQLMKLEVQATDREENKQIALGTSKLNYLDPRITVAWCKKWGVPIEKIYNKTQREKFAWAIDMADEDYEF
Put plainly: Topoisomerase I-mediated DNA cleavage reactions. The class given is biochemical. Particulars: 100 μM.

“Also recorded” adds a separate entry of the source. Where a name gives a salt, the structure may show the parent alone.

recombinant Tdp1, sequence (Q9NUW8 whole entry): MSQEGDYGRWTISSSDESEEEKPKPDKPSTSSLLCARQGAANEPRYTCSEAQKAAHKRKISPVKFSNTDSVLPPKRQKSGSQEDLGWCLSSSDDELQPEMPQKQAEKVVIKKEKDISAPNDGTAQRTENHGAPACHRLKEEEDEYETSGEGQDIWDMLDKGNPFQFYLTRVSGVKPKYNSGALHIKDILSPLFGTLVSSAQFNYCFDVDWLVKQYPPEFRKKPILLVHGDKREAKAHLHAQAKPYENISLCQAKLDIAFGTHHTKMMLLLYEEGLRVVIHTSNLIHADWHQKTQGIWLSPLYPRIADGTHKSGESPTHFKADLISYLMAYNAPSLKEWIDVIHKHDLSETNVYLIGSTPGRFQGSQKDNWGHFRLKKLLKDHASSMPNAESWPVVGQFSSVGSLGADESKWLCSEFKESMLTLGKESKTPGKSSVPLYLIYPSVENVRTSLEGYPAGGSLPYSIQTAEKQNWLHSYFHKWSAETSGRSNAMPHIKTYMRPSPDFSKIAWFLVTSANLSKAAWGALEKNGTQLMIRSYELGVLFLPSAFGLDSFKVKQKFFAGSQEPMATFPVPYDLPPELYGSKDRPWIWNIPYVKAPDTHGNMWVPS

Regarding `Cn1c2c(c3ccc(NC(=O)C(=O)O)cc3c1=O)C(=O)c1ccccc1-2` [Compound 14], the “binding to the single-stranded DNA substrate” value in assay [1] is “did not bind”. `CCOC(=O)CNc1ccc2c3c(n(CCCN)c(=O)c2c1)-c1ccccc1C3=O.Cl` [Compound 40, Ethyl 2-[(6-(3-Aminopropyl)-5,11-dioxo-6,11-dihydro-5H-indeno[1,2-c]isoquinolin-3-yl)amino]acetate Hydrochloride]: the “Tdp1 inhibitory activity (in words)” value on recombinant Tdp1 is given as “active”.

On to `CC(C)(C)OC(=O)NCCCn1c2c(c3ccc(NC(=O)CCCCC(=O)O)cc3c1=O)C(=O)c1ccccc1-2` [Compound 31, 6-[(6-(3-((tert-Butoxycarbonyl)amino)propyl)-5,11-dioxo-6,11-dihydro-5H-indeno[1,2-c]isoquinolin-3-yl)amino]-6-oxohexanoic Acid], for which the “Tdp1 inhibitory activity (in words)” value at recombinant Tdp1 is given as “weakly active”.

With `CC(C)(C)OC(=O)NCCCn1c2c(c3ccc(NC(=O)CCC(=O)O)cc3c1=O)C(=O)c1ccccc1-2` [Compound 29, 4-[(6-(3-((tert-Butoxycarbonyl)amino)propyl)-5,11-dioxo-6,11-dihydro-5H-indeno[1,2-c]isoquinolin-3-yl)amino]-4-oxobutanoic Acid], the “Tdp1 inhibitory activity (in words)” value at recombinant Tdp1 is given as “weakly active”. With `COc1ccc2c(c1)-c1c(c3ccc([N+](=O)[O-])cc3c(=O)n1CCCN)C2=O` [Compound 51, 6-(3-Aminopropyl)-5,6-dihydro-8-methoxy-3-nitro-5,11-dioxo-11H-indeno[1,2-c]isoquinoline Hydrochloride], the GI50 – broadly, the concentration that inhibits growth by half – in assay [2] was 170 ± 17 nM. `Cn1c2c(c3ccc(NCC(=O)O)cc3c1=O)C(=O)c1ccccc1-2` [Compound 41, 2-[(6-Methyl-5,11-dioxo-6,11-dihydro-5H-indeno[1,2-c]isoquinolin-3-yl)amino]acetic Acid]: the “Tdp1 inhibitory activity (in words)” value on recombinant Tdp1 is “inactivity; also recorded: inactive”. For `NCCCn1c2c(c3ccc(N)cc3c1=O)C(=O)c1ccccc1-2` [Compound 62], in assay [2], the GI50 came out at 160 nM.

In the case of `CCOC(=O)CNc1ccc2c3c(n(C)c(=O)c2c1)-c1ccccc1C3=O` [Compound 38, Ethyl 2-[(6-Methyl-5,11-dioxo-6,11-dihydro-5H-indeno[1,2-c]isoquinolin-3-yl)amino]acetate], the “Tdp1 inhibitory activity (in words)” value at recombinant Tdp1 was “inactivity; also recorded: inactive”. For `O=C1c2ccccc2-c2c1c1ccc([N+](=O)[O-])cc1c(=O)n2CCCO` [Compound 63], the GI50 in assay [2] turned out to be 890 ± 220 nM. On the same count and under the same terms, the figure for `COC(=O)C(=O)Nc1ccc2c3c(n(CCCN)c(=O)c2c1)-c1ccccc1C3=O` [Compound 22, Methyl 2-[(6-(3-Aminopropyl)-5,11-dioxo-6,11-dihydro-5H-indeno[1,2-c]isoquinolin-3-yl)amino]-2-oxoacetate] is 1860 ± 380 nM. Same read-out and setting: the figure for `COc1ccc2c(c1)C(=O)c1c-2n(CCCN)c(=O)c2cc(I)ccc12` [Compound 84, 6-(3-Aminopropyl)-5,6-dihydro-9-methoxy-3-iodo-5,11-dioxo-11H-indeno[1,2-c]isoquinoline] is 250 ± 4 nM; for `COc1ccc2c(c1)C(=O)c1c-2n(CCCN)c(=O)c2cc([N+](=O)[O-])ccc12` [Compound 54] it is 20 ± 0.8 nM. `Cn1c2c(c3ccc(NC(=O)CC(=O)O)cc3c1=O)C(=O)c1ccccc1-2` [Compound 15, 3-[(6-Methyl-5,11-dioxo-6,11-dihydro-5H-indeno[1,2-c]isoquinolin-3-yl)amino]-3-oxopropanoic Acid]: the “Tdp1 inhibitory activity (in words)” value at recombinant Tdp1 is “inactive”. With `COc1ccc2c(c1)-c1c(c3ccc([N+](=O)[O-])cc3c(=O)n1CCCn1ccnc1)C2=O` [Compound 52, 6-(3-(1H-Imidazol-1-yl)propyl)-8-methoxy-3-nitro-5H-indeno[1,2-c]isoquinoline-5,11(6H)-dione], the “suppression of Top1-mediated DNA cleavage at high drug concentration” value at recombinant human Top1 is “slight suppression; also recorded: does not”. The “Tdp1 inhibitory activity (in words)” value at recombinant Tdp1 is “very weak or inactive”. The GI50 in assay [2] is 20 ± 0.6 nM. Regarding `COc1ccc2c(c1)C(=O)c1c-2n(CCCN(C)C)c(=O)c2cc(I)ccc12` [Compound 85, 3-Iodo-9-methoxy-6-(3-(Dimethylamino)propyl)-5H-indeno[1,2-c]isoquinoline-5,11(6H)-dione], the “suppression of Top1-mediated DNA cleavage at high drug concentration” value at recombinant human Top1 is reported as “complete suppression; also recorded: suppress”. With `NCCCn1c2c(c3ccc(NCC(=O)O)cc3c1=O)C(=O)c1ccccc1-2` [Compound 43, 2-((6-(3-Aminopropyl)-5,11-dioxo-6,11-dihydro-5H-indeno[1,2-c]isoquinolin-3-yl)amino)acetic Acid Hydrochloride], the GI50 in assay [2] turned out to be 870 ± 14 nM. `COC(=O)CCCC(=O)Nc1ccc2c3c(n(CCCN)c(=O)c2c1)-c1ccccc1C3=O` [Compound 25, Methyl 5-[(6-(3-Aminopropyl)-5,11-dioxo-6,11-dihydro-5H-indeno[1,2-c]isoquinolin-3-yl)amino]-5-oxopentanoate]: the GI50 in assay [2] was 1090 nM. Take `COc1ccc2c(c1)-c1c(c3ccc([N+](=O)[O-])cc3c(=O)n1CCCN1CCOCC1)C2=O` [Compound 53, 8-Methoxy-6-(3-morpholinopropyl)-3-nitro-5H-indeno[1,2-c]isoquinoline-5,11(6H)-dione]: the “Tdp1 inhibitory activity (in words)” value on recombinant Tdp1 is “very weak or inactive”. In the case of `CC(C)(C)OC(=O)NCCCn1c2c(c3ccc(NC(=O)CCCC(=O)O)cc3c1=O)C(=O)c1ccccc1-2` [Compound 30, 5-[(6-(3-((tert-Butoxycarbonyl)amino)propyl)-5,11-dioxo-6,11-dihydro-5H-indeno[1,2-c]isoquinolin-3-yl)amino]-5-oxopentanoic Acid], the “Tdp1 inhibitory activity (in words)” value at recombinant Tdp1 is “inactive”. Same read-out and setting: the entry for `COC(=O)C(=O)Nc1ccc2c3c(n(C)c(=O)c2c1)-c1ccccc1C3=O` [Compound 9, Methyl 2-[(6-Methyl-5,11-dioxo-6,11-dihydro-5H-indeno[1,2-c]isoquinolin-3-yl)amino]-2-oxoacetate] is “inactive”; for `COc1ccc2c(c1)-c1c(c3ccc([N+](=O)[O-])cc3c(=O)n1CCCBr)C2=O` [Compound 49, 6-(3-Bromopropyl)-5,6-dihydro-8-methoxy-3-nitro-5,11-dioxo-11H-indeno[1,2-c]isoquinoline] it is “very weak or inactive”. For the compound `COc1ccc2c(c1)C(=O)c1c-2n(CCCN)c(=O)c2cc(N)ccc12` [Compound 89, 3-Amino-6-(3-aminopropyl)-5,6-dihydro-9-methoxy-5,11-dioxo-11H-indeno[1,2-c]isoquinoline Dihydrochloride], the GI50 in assay [2] amounted to 40 nM. Same read-out and setting: the figure for `CN(C)CCCn1c2c(c3ccc(C#N)cc3c1=O)C(=O)c1ccccc1-2` [Compound 74] is 300 ± 14 nM.

Turning to `CC(C)(C)OC(=O)NCCCn1c2c(c3ccc(NCC(=O)O)cc3c1=O)C(=O)c1ccccc1-2` [Compound 42, 2-((6-(3-((tert-Butoxycarbonyl)amino)propyl)-5,11-dioxo-6,11-dihydro-5H-indeno[1,2-c]isoquinolin-3-yl)amino)acetic Acid], the “Tdp1 inhibitory activity (in words)” value at recombinant Tdp1 is recorded as “inactivity”.

Regarding `COC(=O)CC(=O)Nc1ccc2c3c(n(CCCN)c(=O)c2c1)-c1ccccc1C3=O` [Compound 23, Methyl 3-[(6-(3-Aminopropyl)-5,11-dioxo-6,11-dihydro-5H-indeno[1,2-c]isoquinolin-3-yl)amino]-3-oxopropanoate], in assay [2], the GI50 turned out to be 1860 nM. `COc1ccc2c(c1)-c1c(c3ccc([N+](=O)[O-])cc3c(=O)n1CCCN=[N+]=[N-])C2=O` [Compound 50, 6-(3-Azidopropyl)-5,6-dihydro-8-methoxy-3-nitro-5,11-dioxo-11H-indeno[1,2-c]isoquinoline]: the “Tdp1 inhibitory activity (in words)” value at recombinant Tdp1 was “very weak or inactive”.
